pIC50: −log10 of the molar value.
Target: human recombinant P2X7 receptor (Homo sapiens (Human), UniProt Q99572)
Experiment: YO-PRO assay: P2X7 receptor antagonistic activity
Type: cell-based
Conditions: HEK cells expressing human P2X7
Protocol: The P2X7 receptor antagonistic activity of the compounds of formula (I) is determined in accordance with the following experimental method.
Cell Line Generation and YO-PRO Assay
Cell line generation was performed in general according to established molecular cloning protocols. Specifically, RNA was extracted from human whole blood using the Qiagen RNeasy kit (Qiagen, CH) according to the manufacturer's instructions. Subsequently cDNA was made (Superscript II, Invitrogen AG, CH) and the human P2X7 gene (genbank ref. BC011913) was amplified with the following primers: […] and […]. The amplified sequence was subsequently ligated into a pcDNA3.1 (+) NotI, NheI digested plasmid. […] Following a 24 h exposure to DNA, cells were trypsinized and re-seeded at low density in the presence of 250 μg Geneticin. Geneticin resistant cells were then selected during two consecutive rounds of cloning by serial limiting dilution with visual inspection. Individual clones were screened for P2X7 expression by applying ATP and recording the resultant uptake of YO-PRO1. Specific cell clones were chosen based on RNA and protein expression. HEK cells stably expressing P2X7 were used to screen drugs using the YO-PRO1 assay. Cells were grown to confluency in adherent culture at 37° C. in a humidified 5% CO2 incubator (split 1/5 every 3-4 days with DMEM, 10% FCS, 1% Penicillin/Streptomycin, 250 μg/ml Geneticin). Adherent cells were detached by incubation with Trypsine (1 ml per 165 cm^2 dish) for 2 minutes, then washed off with 10 ml PBS (without Mg^2+ and Ca^2+), and resuspended in DMEM, 10% FCS, 1% Penicillin/Streptomycin, no Geneticin. […] During this time period, four time points were taken. Each time point comprised the average of several measurements made within a few seconds. […] The FLIPR tetra was equipped with Molecular Devices Screen Works system control software to define and run experimental protocols. […] For IC50 measurements the maximum intensity is plotted against the concentration of compound to determine IC50 values.

human recombinant P2X7 receptor, sequence (Q99572 whole entry): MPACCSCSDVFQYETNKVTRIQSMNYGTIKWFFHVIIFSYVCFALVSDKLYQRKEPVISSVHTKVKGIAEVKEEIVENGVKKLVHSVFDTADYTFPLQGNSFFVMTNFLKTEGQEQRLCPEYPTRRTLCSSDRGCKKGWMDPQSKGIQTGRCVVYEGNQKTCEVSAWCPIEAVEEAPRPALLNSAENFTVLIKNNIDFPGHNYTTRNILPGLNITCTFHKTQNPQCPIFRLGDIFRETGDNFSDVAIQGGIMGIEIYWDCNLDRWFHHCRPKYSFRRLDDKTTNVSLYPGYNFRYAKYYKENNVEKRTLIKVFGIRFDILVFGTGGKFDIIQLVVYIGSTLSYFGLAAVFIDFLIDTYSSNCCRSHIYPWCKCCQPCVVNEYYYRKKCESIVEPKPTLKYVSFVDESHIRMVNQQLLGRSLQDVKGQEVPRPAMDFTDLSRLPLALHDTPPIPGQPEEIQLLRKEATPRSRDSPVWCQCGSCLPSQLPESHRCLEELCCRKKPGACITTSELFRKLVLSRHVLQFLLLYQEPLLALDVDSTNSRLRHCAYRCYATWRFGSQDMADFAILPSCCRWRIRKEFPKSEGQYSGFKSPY

Structure (SMILES)	pIC50
Cc1cc(Cl)cc(Cl)c1CC(=O)NC1COc2ncccc21 (racemic) [Example 5, rac-2-(2,4-Dichloro-6-methyl-phenyl)-N-(2,3-dihydro-furo[2,3-b]pyridin-3-yl)-acetamide]	7.92
Cc1cc(Cl)cc(Cl)c1CC(=O)NC1CCOc2ncccc21 (racemic) [Example 8, rac-2-(2,4-Dichloro-6-methyl-phenyl)-N-(3,4-dihydro-2H-pyrano[2,3-b]pyridin-4-yl)-acetamide]	7.37
N#Cc1ccccc1CC(=O)NC1COc2ncccc21 (racemic) [Example 10, rac-2-(2-Cyano-phenyl)-N-(2,3-dihydro-furo[2,3-b]pyridin-3-yl)-acetamide]	5.53
Cc1ccccc1CC(=O)NC1COc2ncccc21 (racemic) [Example 11, rac-N-(2,3-Dihydro-furo[2,3-b]pyridin-3-yl)-2-o-tolyl-acetamide]	5.88
COc1ccccc1CC(=O)NC1COc2ncccc21 (racemic) [Example 12, rac-N-(2,3-Dihydro-furo[2,3-b]pyridin-3-yl)-2-(2-methoxy-phenyl)-acetamide]	< 5.22
N#Cc1ccc(CC(=O)NC2COc3ncccc32)cc1 (racemic) [Example 13, rac-2-(4-Cyano-phenyl)-N-(2,3-dihydro-furo[2,3-b]pyridin-3-yl)-acetamide]	< 5.27
Cc1ccc(CC(=O)NC2COc3ncccc32)cc1 (racemic) [Example 14, rac-N-(2,3-Dihydro-furo[2,3-b]pyridin-3-yl)-2-p-tolyl-acetamide]	< 5.26
O=C(Cc1ccc(Cl)cc1)NC1COc2ncccc21 (racemic) [Example 15, rac-2-(4-Chloro-phenyl)-N-(2,3-dihydro-furo[2,3-b]pyridin-3-yl)-acetamide]	5.85
O=C(Cc1ccc(C(F)(F)F)cc1)NC1COc2ncccc21 (racemic) [Example 16, rac-N-(2,3-Dihydro-furo[2,3-b]pyridin-3-yl)-2-(4-trifluoromethyl-phenyl)-acetamide]	5.93

Continued, values first:

pIC50	Structure (SMILES)
6.28	O=C(Cc1ccc(F)cc1F)NC1COc2ncccc21 (racemic) [Example 17, rac-2-(2,4-Difluoro-phenyl)-N-(2,3-dihydro-furo[2,3-b]pyridin-3-yl)-acetamide]
6.41	O=C(Cc1ccc(F)cc1C(F)(F)F)NC1COc2ncccc21 (racemic) [Example 18, rac-N-(2,3-Dihydro-furo[2,3-b]pyridin-3-yl)-2-(4-fluoro-2-trifluoromethyl-phenyl)-acetamide]
< 5.18	COc1ccc(CC(=O)NC2COc3ncccc32)c(OC)c1 (racemic) [Example 19, rac-N-(2,3-Dihydro-furo[2,3-b]pyridin-3-yl)-2-(2,4-dimethoxy-phenyl)-acetamide]
6.24	COc1ccc(CC(=O)NC2COc3ncccc32)c(F)c1 (racemic) [Example 20, rac-N-(2,3-Dihydro-furo[2,3-b]pyridin-3-yl)-2-(2-fluoro-4-methoxy-phenyl)-acetamide]
6.33	O=C(Cc1ccc(Cl)c(Cl)c1)NC1COc2ncccc21 (racemic) [Example 21, rac-2-(3,4-Dichloro-phenyl)-N-(2,3-dihydro-furo[2,3-b]pyridin-3-yl)-acetamide]
6.05	O=C(Cc1c(F)cc(F)cc1F)NC1COc2ncccc21 (racemic) [Example 22, rac-N-(2,3-Dihydro-furo[2,3-b]pyridin-3-yl)-2-(2,4,6-trifluoro-phenyl)-acetamide]
7.64	CCc1cc(Cl)cc(Cl)c1CC(=O)NC1COc2ncccc21 (racemic) [Example 32, rac-2-(2,4-Dichloro-6-ethyl-phenyl)-N-(2,3-dihydro-furo[2,3-b]pyridin-3-yl)-acetamide]
6.62	O=C(Cc1c(Cl)cc(Cl)cc1C(F)(F)F)NC1COc2ncccc21 (racemic) [Example 33, rac-2-(2,4-Dichloro-6-trifluoromethyl-phenyl)-N-(2,3-dihydro-furo[2,3-b]pyridin-3-yl)-acetamide]

Source: patent publication US9221832B2, “Heterocyclic amide derivatives as P2X7 receptor antagonists” (ACTELION PHARMACEUTICALS LTD., priority 2011, dated 2015)
